Measured values reported in PMC9108036 (Biomedicine & Pharmacotherapy, 2022).
Read-outs that look alike come from different tables or passages of the source.

How the values were obtained:
in vitro = format: cell-based; conditions: human
[1] = tested on: Omicron SARS-CoV-2 lentiviral pseudovirus; format: cell-based
[2] = Omicron pseudovirus, CaCo2 cells

Compound | viability at 10 µM (in vitro) | inhibition of Omicron pseudovirus entry (in words) [1, 2] | inhibition of Omicron pseudovirus entry (in words) [1]
CCCCC[C@H](O)/C=C/[C@H]1[C@H](O)CC(=O)[C@@H]1CCCCCCC(=O)O [Alprostadil] | 100 ± 2.9% | – | –
CN(C)CCCN1c2ccccc2Sc2ccc(Cl)cc21 [Chlorpromazine] | 88.6 ± 4.3% | enhanced inhibitory effects | –
Nc1nc(Cl)nc2c1ncn2[C@H]1C[C@H](O)[C@@H](CO)O1 [Cladribine] | 108 ± 2.7% | – | –
CN(C)CCCN1c2ccccc2CCc2ccc(Cl)cc21 [Clomipramine] | – | – | enhanced inhibitory effects
COC(=O)C1=C(C)NC(C)=C(C(=O)OCCCN2CCC(c3ccccc3)(c3ccccc3)CC2)[C@@H]1c1cccc([N+](=O)[O-])c1 [Dexniguldipine] | – | – | strong inhibition
CC(=O)O[C@@]12CO[C@@H]1C[C@H](O)[C@@]1(C)C(=O)[C@H](O)C3=C(C)[C@@H](OC(=O)[C@H](O)[C@@H](NC(=O)OC(C)(C)C)c4ccccc4)C[C@@](O)([C@@H](OC(=O)c4ccccc4)[C@H]21)C3(C)C [Docetaxel] | 80.8 ± 3% | – | –
Clc1ccc(COC(Cn2ccnc2)c2ccc(Cl)cc2Cl)cc1 (centres unmarked) [Econazole] | 88.2 ± 1.8% | – | –
O=c1[nH]cc(F)c(=O)[nH]1 [Fluorouracil] | 97 ± 1.7% | – | –
CSc1ccc2c(c1)N(CCC1CCCCN1C)c1ccccc1S2 (centres unmarked) [Thioridazine] | – | – | enhanced inhibitory effects
CN1CCN(CCCN2c3ccccc3Sc3ccc(C(F)(F)F)cc32)CC1 [Trifluoperazine] | – | enhanced inhibitory effects | –
